Marks after values point to notes of the source that are not given here.
Experiments:
SK-Mel-5 cells = experiment: Growth inhibition of siRNA-transfected SK-Mel-5 cells, SYBR Green I DNA content; assay type: cell-based, human; details: 10 nM siRNA; standardized against control siRNA
Method: (§1) A549 cells (human lung cancer cell line; ATCC No. CCL-185), SK-MeI-5 cells (human melanoma cell line; ATCC No. HTB-70), MCF-7 cells (human adenocarcinoma cell line; ATCC No. HTB-22), HCT-116 cells (colorectal carcinoma; ATCC CCL-247) and HCT-116 p53 null cells (derived from ATCC No. CCL-247; Bunz et al., Science 282:1497-1501, 1998) were cultured in RPMI 1640 medium with 10% v/v heat-inactivated fetal calf serum (FCS). Cells were seeded at a density of 5×10^4 cells/cm^2 in multi-well tissue culture plates. Sequences of Stealth™ siRNA duplexes (Invitrogen) targeting human ribonucleotide reductase subunit 1 (SEQ ID NO: 22) and subunit 2 (SEQ ID NO; 38) are given in SEQ ID NO: 4830-4832 (DNA), and SEQ ID NO: 5136-5138 (RNA) for RRM1, and SEQ ID NO: 5306-5308 (DNA), and SEQ ID NO: 5303-5305 (RNA) for RRM2. siRNAs were transfected at different concentrations into cells using Lipofectamine™ RNAiMAX transfection reagent (Invitrogen). Non-specific siRNA (SEQ ID NO: 4804 and 4805 (DNA), and SEQ ID NO: 5301 and 5302 (RNA)) were used as controls. The cellular DNA content was measured using a SYBR Green I-based fluorometric assay at 24, 48, 72 and 96 hours after transfection (120 hours for the MCF-7 cells), as follows. At the indicated time points following reverse transfection, cells were harvested and frozen at −80° C. overnight. Cells were thawed and cell lysis buffer (phosphate-buffered saline (PBS) containing 1% Triton X-100, pH 7) and SYBR Green I (1:10^5 V/V; Invitrogen) was added to the wells and incubated overnight in the dark at 4° C.
(§2) The following day, cell lysates were mixed thoroughly, and DNA fluorescence was measured with a Wallac Victor^2 plate reader (Turku, Finland) set at an excitation frequency of 485 nm and measuring emission at 535 nm.
siRNA-mediated inhibition of cancer cell growth using siRNA targeting the YBX1 gene (SEQ ID NO: 92) was determined as follows. SK-MeI-5 cells were cultured in RPMI 1640 medium with 10% v/v heat-inactivated fetal calf serum. Cells were cultured as described above and reverse transfected with 0.1, 1.0, 10 and 40 nM (final concentration) of a pool of YBX1-targeting siRNAs (SEQ ID NO: 4982 and 4983 (DNA), and SEQ ID NO: 5277 and 5278 (RNA); referred to as 994 and 995 in FIG. 19) or a non-specific control (SEQ ID NO: 4804 (DNA), and SEQ ID NO: 5301 (RNA); referred to as Stealth 81 ctrl in FIG. 19), and cell growth determined after 120 h by measuring DNA fluorescence with a Wallac Victor^2 plate reader (Turku, Finland) set at an excitation frequency of 485 nm and measuring emission at 535 nm. Growth inhibition by the siRNA pool was standardized against the inhibition obtained with the control siRNAs.
(§3) siRNA-mediated RNAi was also determined on a panel of different cell lines. A549, SK-MeI-5, wt HCT-116, HCT-116−/−p53 and MCF-7 cells were transfected with 10 nM siRNAs targeting YBX-1 and growth inhibition determined as described above. The YBX1 siRNAs are given in SEQ ID NO: 4981 to 4985 (DNA) and SEQ ID NO: 5276-5280 (RNA). A non-specific siRNA (SEQ ID NO: 4804 (DNA) and SEQ ID NO: 5301 (RNA)) was used as control. Growth inhibition by the siRNAs, given in Table 14, was standardized against the inhibition obtained with the control siRNA.

wt HCT-116 cells = experiment: Growth inhibition of siRNA-transfected wt HCT-116 cells, SYBR Green I DNA content; assay type: cell-based; details: standardized against control siRNA
Method: as §1, §2
To determine the effect of the p53-status of cells on RRM1 and RRM2 knockdown, growth inhibition of wild type (wt) HCT-116 and p53 null HCT-116 cells by RRM1 and RRM2-targeted siRNA were determined. Cells were reverse transfected with 1.0 and 10 nM RRM1-3 (SEQ ID NO: 4832 (DNA), and SEQ ID NO: 5138 (RNA)), 1.0 and 10 nM RRM2-2 (SEQ ID NO: 5307 (DNA), and SEQ ID NO: 5304 (RNA)) or 10 nM control siRNA (SEQ ID NO: 4804 (DNA), and SEQ ID NO: 5301 (RNA)), and growth measured daily for up to 4 days post transfection.
as §3
HCT-116 and A549 cells were transfected with 0.1, 1.0 and 10 nM siRNA targeting TYMS and DHFR (SEQ ID NO: 4833 to 4838 (DNA), and SEQ ID NO: 5139-5144 (RNA)) using Lipofectamine™ RNAiMAX and incubated for 96 h, in either normal fetal calf serum or serum dialyzed to remove low molecular weight molecules (cut-off 10 kDa). Growth of cells was measured by measuring the total DNA content per well using the SYBR Green assay as described above, and values are given as the percentage of the averaged control values. […] Inhibition increased with increasing siRNA concentration, which was not observed with a non-specific control siRNA. […]

## SEQ ID NO: 4982: siRNA targeting YBX1 (chain 1 TTTGCTGGTAATTGCGTGGAGGACC; chain 2 UUUGCUGGUAAUUGCGUGGAGGACC; chemistry not given here; one strand in two spellings)
SK-Mel-5 cells
  growth inhibition, SK-Mel-5 cells: +++ (At least 70% inhibition)
Wt HCT-116 cells; 10 nM siRNA
  growth inhibition, wt HCT-116 cells: +++ (At least 70% inhibition)

## SEQ ID NO: 4983: siRNA targeting YBX1 (chain 1 TACTGTGGTCGACGCCCATAGGGTC; chain 2 UACUGUGGUCGACGCCCAUAGGGUC; chemistry not given here; one strand in two spellings)
SK-Mel-5 cells
  growth inhibition, SK-Mel-5 cells: ++ (At least 50% inhibition)

## SEQ ID NO: 4984: siRNA targeting YBX1 (chain 1 CAAGGTAGACCAGTGAGGCAGAATA; chain 2 CAAGGUAGACCAGUGAGGCAGAAUA; chemistry not given here; one strand in two spellings)
SK-Mel-5 cells
  growth inhibition, SK-Mel-5 cells: +++ (At least 70% inhibition)
Wt HCT-116 cells; 1 nM siRNA
  growth inhibition, wt HCT-116 cells: +* (At least 20% inhibition)

## SEQ ID NO: 4985: siRNA targeting YBX1 (chain 1 CAGCCTAGAGAGGACGGCAATGAAG; chain 2 CAGCCUAGAGAGGACGGCAAUGAAG; chemistry not given here; one strand in two spellings)
SK-Mel-5 cells
  growth inhibition, SK-Mel-5 cells: ++ (At least 50% inhibition)
Wt HCT-116 cells; 1 nM siRNA
  growth inhibition, wt HCT-116 cells: −* (No inhibition)

Source: US20080145313A1, “Compositions and Methods for the Treatment and Prevention of Neoplastic Disorders” (Genesis Research & Development Corporation Limited, priority 2006, published 2008)
